The species named for test [1] is Mus musculus. The test can be described thus: Antinociceptive activity in mice was determined using Tail flick method. The class given is functional. Background: Thermal pain tests record how soon the animal reacts.
Test [2] deals with Kappa-type opioid receptor (Homo sapiens, UniProt P41145). The test can be described thus: Binding affinity for Opioid receptor kappa 1 was determined.
Test [3] has as its target Delta-type opioid receptor (Homo sapiens, UniProt P41143). In words: Binding affinity for Opioid receptor delta 1 was determined.
The next test concerns the target Mu-type opioid receptor (Homo sapiens, UniProt P35372). The test can be described thus: Binding affinity for Opioid receptor mu 1.
The species named for test [4] is Mus musculus. The test can be described thus: Antinociceptive activity in mice was determined using PBQ assay. The class given is functional.

The text below walks through data of ChEMBL document CHEMBL1134942, “Synthesis and structure--activity relationship of novel aminotetralin derivatives with high micro selective opioid affinity” (Bioorg Med Chem Lett, 2002).

In general, ED50 refers to the dose that gives a 50% effect, or the effect in half of the subjects. Low values mean greater potency, high ones weaker potency. For orientation: Ki means a dissociation constant, usually derived from enzyme kinetics or from competition with a known ligand.

Sequence of Delta-type opioid receptor (P41143 whole entry): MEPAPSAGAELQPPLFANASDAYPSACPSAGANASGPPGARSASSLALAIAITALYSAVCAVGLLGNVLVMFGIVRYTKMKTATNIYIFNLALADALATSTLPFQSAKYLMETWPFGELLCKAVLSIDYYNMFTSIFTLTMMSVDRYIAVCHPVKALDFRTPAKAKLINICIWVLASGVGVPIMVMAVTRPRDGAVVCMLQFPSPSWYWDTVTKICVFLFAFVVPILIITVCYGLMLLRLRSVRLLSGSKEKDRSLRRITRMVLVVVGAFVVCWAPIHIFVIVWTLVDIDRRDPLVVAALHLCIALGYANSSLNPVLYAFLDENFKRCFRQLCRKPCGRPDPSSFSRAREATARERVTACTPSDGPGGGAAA
Sequence of Kappa-type opioid receptor (P41145 whole entry): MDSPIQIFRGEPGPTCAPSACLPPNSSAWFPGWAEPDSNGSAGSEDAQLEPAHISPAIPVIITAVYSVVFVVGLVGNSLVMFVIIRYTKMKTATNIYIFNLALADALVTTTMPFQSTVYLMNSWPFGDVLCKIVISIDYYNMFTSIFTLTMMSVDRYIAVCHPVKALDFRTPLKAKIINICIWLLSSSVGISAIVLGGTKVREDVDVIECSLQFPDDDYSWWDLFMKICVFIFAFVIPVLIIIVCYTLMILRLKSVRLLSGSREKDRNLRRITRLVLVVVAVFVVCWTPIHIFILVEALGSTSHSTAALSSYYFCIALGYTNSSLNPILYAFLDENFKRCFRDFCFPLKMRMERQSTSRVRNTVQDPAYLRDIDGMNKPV
Sequence of Mu-type opioid receptor (P35372 whole entry): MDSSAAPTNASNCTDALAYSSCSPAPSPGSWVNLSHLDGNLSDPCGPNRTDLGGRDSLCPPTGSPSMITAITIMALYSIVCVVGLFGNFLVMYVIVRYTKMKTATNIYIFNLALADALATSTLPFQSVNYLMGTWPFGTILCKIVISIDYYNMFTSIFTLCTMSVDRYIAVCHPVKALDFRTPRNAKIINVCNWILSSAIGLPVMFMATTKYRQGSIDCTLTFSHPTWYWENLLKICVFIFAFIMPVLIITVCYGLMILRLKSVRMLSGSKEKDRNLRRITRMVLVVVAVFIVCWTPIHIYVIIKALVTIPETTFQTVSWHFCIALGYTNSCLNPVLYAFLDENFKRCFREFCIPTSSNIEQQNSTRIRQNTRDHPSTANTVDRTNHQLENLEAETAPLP

`CC[C@@H]1Cc2ccc(O)cc2C(C)(C)[C@@H]1N`: the ED50 in the test filed under Mus musculus [1] is 10.4 µmol/kg; in the test filed under Mus musculus [4] it was 4.8 µmol/kg. Further, the Ki was 345 nM in test [2], 4510 nM in test [3] and 21 nM at Mu-type opioid receptor.
For `CN1CC[C@]23c4c5ccc(O)c4O[C@H]2[C@@H](O)C=C[C@H]3[C@H]1C5` [MORPHINE], the 50% effective dose (ED50) in the test filed under Mus musculus [1] worked out at 1.2 µmol/kg; in the test filed under Mus musculus [4] it was 1.6 µmol/kg.
As for `C[C@@]12CCCCS[C@@H](Cc3ccc(O)cc31)C2N` (stereo partly specified), the Ki was determined as 43.4 nM in test [2], 420 nM in test [3] and 0.79 nM on Mu-type opioid receptor. Moreover, in the test filed under Mus musculus [4], the 50% effect level (ED50) was put at a dose of 0.33 µmol/kg.
With `CS[C@@H]1Cc2ccc(O)cc2C(C)(C)[C@@H]1N`, the median effective dose (ED50) in the test filed under Mus musculus [1] is 0.58 µmol/kg; in the test filed under Mus musculus [4] it was 0.14 µmol/kg. For the same compound, the inhibitory constant (Ki) in test [2] turned out to be 66 nM; in test [3], 349 nM.
Compound `CC[C@H]1Cc2ccc(O)cc2C(C)(C)[C@@H]1N` returned a Ki on Mu-type opioid receptor of 135 nM.
`C[S+]([O-])[C@@H]1Cc2ccc(O)cc2C(C)(C)[C@@H]1N` (stereo in doubt; 18A) returned a Ki on Mu-type opioid receptor of 1060 nM.
Take `CO[C@@H]1Cc2ccc(O)cc2C(C)(C)[C@@H]1N`: the 50% effective dose (ED50) in the test listed under Mus musculus [1] worked out at 16 µmol/kg; in the test listed under Mus musculus [4] it was 1.1 µmol/kg. The inhibitory constant (Ki) turned out to be 184 nM in test [2], 5220 nM in test [3] and 1.8 nM on Mu-type opioid receptor.
At Mu-type opioid receptor, `C[S+]([O-])[C@@H]1Cc2ccc(O)cc2C(C)(C)[C@@H]1N` (stereo in doubt; 18B) had a Ki of 2000 nM.
`CC1(C)c2cc(O)ccc2C[C@@H](S)[C@H]1N` registered a Ki on Mu-type opioid receptor of 163 nM.
The same measure, in the same setting: next, `CC1(C)c2cc(O)ccc2C[C@@H](O)[C@H]1N`: 204 nM; `CC1(C)c2cc(O)ccc2C[C@@H](S(C)(=O)=O)[C@H]1N`: 1150 nM.
